#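 Protocol summary: plate cells (96-well), add compound at 5 concentrations, incubate 48 h, interpolate endpoints linearly. Here, GI50 denotes the concentration required for 50% inhibition of growth.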 Calls of active or inactive are those of the source. No stated cut-off is given here; in the data, active = GI50 up to about 1.1 µM and inactive = higher.
# How the values were obtained:
# Assay in all cases: inhibition of tumour cell growth, NCI panel, 48 h
# [1] = tested on: T47D
# [2] = tested on: MDA-MB-231
# [3] = tested on: IGROV-1
# [4] = tested on: 786-0
# [5] = tested on: COLO 205
# [6] = tested on: OVCAR-8
# [7] = tested on: KM12
# [8] = tested on: UACC-62
# [9] = tested on: MCF7
# [10] = tested on: SF-539
# [11] = tested on: SF-295
# [12] = tested on: RXF 393
# [13] = tested on: MOLT-4
# [14] = tested on: OVCAR-5
# [15] = tested on: MDA-MB-435
# [16] = tested on: HT-29
# [17] = tested on: TK-10
# [18] = tested on: HCC 2998
# [19] = tested on: EKVX
SMILES,GI50 [1],GI50 [2],GI50 [3],GI50 [4],GI50 [5],GI50 [6],GI50 [7],GI50 [8],GI50 [9],GI50 [10],GI50 [11],GI50 [12],GI50 [13],GI50 [14],GI50 [15],GI50 [16],GI50 [17],GI50 [18],GI50 [19]
COc1cc2c(cc1OC)C(=O)/C(=C/c1ccc([N+](=O)[O-])cc1)CC2,> 10 µM (inactive),> 10 µM (inactive),> 10 µM (inactive),> 10 µM (inactive),> 10 µM (inactive),> 10 µM (inactive),> 10 µM (inactive),> 10 µM (inactive),> 10 µM (inactive),> 10 µM (inactive),> 10 µM (inactive),> 10 µM (inactive),> 10 µM (inactive),> 10 µM (inactive),> 10 µM (inactive),> 10 µM (inactive),> 10 µM (inactive),> 10 µM (inactive),> 10 µM (inactive)
CC1C2CC(CC2=O)C1(C)C (stereo not drawn),> 100 µM (inactive),> 100 µM (inactive),> 100 µM (inactive),> 100 µM (inactive),> 100 µM (inactive),> 100 µM (inactive),> 100 µM (inactive),> 100 µM (inactive),> 100 µM (inactive),> 100 µM (inactive),> 100 µM (inactive),> 100 µM (inactive),> 100 µM (inactive),> 100 µM (inactive),> 100 µM (inactive),> 100 µM (inactive),> 100 µM (inactive),> 100 µM (inactive),> 100 µM (inactive)
COc1c(C)c(OCC=C(C)C)cc(CO)c1CO,38.1 µM (inactive),69.8 µM (inactive),38.2 µM (inactive),7.23 µM (inactive),58.6 µM (inactive),36 µM (inactive),63 µM (inactive),60.8 µM (inactive),38.5 µM (inactive),53.7 µM (inactive),45.4 µM (inactive),10.7 µM (inactive),26.7 µM (inactive),> 100 µM (inactive),55.3 µM (inactive),54.5 µM (inactive),89.5 µM (inactive),82.6 µM (inactive),77.8 µM (inactive)
C=C1C(=O)CCC1C(=O)O (stereo not drawn),> 100 µM (inactive),> 100 µM (inactive),> 100 µM (inactive),> 100 µM (inactive),> 100 µM (inactive),> 100 µM (inactive),> 100 µM (inactive),> 100 µM (inactive),> 100 µM (inactive),> 100 µM (inactive),> 100 µM (inactive),> 100 µM (inactive),> 100 µM (inactive),> 100 µM (inactive),> 100 µM (inactive),> 100 µM (inactive),> 100 µM (inactive),> 100 µM (inactive),> 100 µM (inactive)
COc1ccc(-c2c3ccccc3c(-c3ccc(OCCBr)cc3)c3ccccc23)cc1,> 100 µM (inactive),> 100 µM (inactive),> 100 µM (inactive),> 100 µM (inactive),> 100 µM (inactive),> 100 µM (inactive),> 100 µM (inactive),> 100 µM (inactive),> 100 µM (inactive),> 100 µM (inactive),> 100 µM (inactive),> 100 µM (inactive),> 100 µM (inactive),> 100 µM (inactive),> 100 µM (inactive),> 100 µM (inactive),> 100 µM (inactive),> 100 µM (inactive),> 100 µM (inactive)
Cc1ccc(/C=C2\CCCC(CN(C)C)C2=O)cc1 (stereo not drawn),1.75 µM (inactive),1.66 µM (inactive),1.96 µM (inactive),1.63 µM (inactive),1.73 µM (inactive),3.04 µM (inactive),1.55 µM (inactive),2.03 µM (inactive),0.525 µM (active),2.84 µM (inactive),17.4 µM (inactive),1.79 µM (inactive),2.28 µM (inactive),15.8 µM (inactive),1.85 µM (inactive),1.69 µM (inactive),2.77 µM (inactive),14.2 µM (inactive),17.5 µM (inactive)
FC(F)(F)c1cccnc1Sc1nc2ccccc2s1,> 100 µM (inactive),63.8 µM (inactive),42.4 µM (inactive),> 100 µM (inactive),> 100 µM (inactive),> 100 µM (inactive),> 100 µM (inactive),> 100 µM (inactive),> 100 µM (inactive),> 100 µM (inactive),63 µM (inactive),> 100 µM (inactive),52.1 µM (inactive),34.1 µM (inactive),> 100 µM (inactive),> 100 µM (inactive),> 100 µM (inactive),> 100 µM (inactive),63 µM (inactive)
